Test results taken from PubChem BioAssay (NCI).
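Interpolation was linear, between the two tested concentrations surrounding the appropriate level; five concentrations were tested over 48 hours in 96-well plates. At the GI50, growth is halved. At the TGI there is no net growth.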

Assays:
Test in all cases: DTP human tumour cell line panel, 48 h; in the data active = GI50 below about 0.43 µM; inactive = the rest
KM12 colon = system: KM12 colon
HCT-116 colon = system: HCT-116 colon
NCI/ADR-RES ovarian = system: NCI/ADR-RES ovarian
U251 CNS = system: U251 CNS
BT-549 breast = system: BT-549 breast
TK-10 renal = system: TK-10 renal
HS 578T breast = system: HS 578T breast
SN12C renal = system: SN12C renal
T-47D breast = system: T-47D breast
A549 NSCLC = system: A549 NSCLC
HOP-92 NSCLC = system: HOP-92 NSCLC
MCF7 breast = system: MCF7 breast
RPMI-8226 leukemia = system: RPMI-8226 leukemia
OVCAR-4 ovarian = system: OVCAR-4 ovarian
SNB-19 CNS = system: SNB-19 CNS
RXF 393 renal = system: RXF 393 renal
NCI-H23 lung = system: NCI-H23 lung
MDA-N = system: MDA-N
SK-MEL-28 melanoma = system: SK-MEL-28 melanoma
M14 melanoma = system: M14 melanoma
MALME-3M melanoma = system: MALME-3M melanoma
OVCAR-5 ovarian = system: OVCAR-5 ovarian
NCI-H226 lung = system: NCI-H226 lung
DU-145 prostate = system: DU-145 prostate
OVCAR-8 ovarian = system: OVCAR-8 ovarian
A498 renal = system: A498 renal
EKVX NSCLC = system: EKVX NSCLC
MDA-MB-435 = system: MDA-MB-435
SW-620 colon = system: SW-620 colon
IGROV1 ovarian = system: IGROV1 ovarian
OVCAR-3 ovarian = system: OVCAR-3 ovarian
CAKI-1 renal = system: CAKI-1 renal
NCI-H460 lung = system: NCI-H460 lung
PC-3 prostate = system: PC-3 prostate
UACC-257 melanoma = system: UACC-257 melanoma
SF-295 CNS = system: SF-295 CNS
HOP-62 NSCLC = system: HOP-62 NSCLC
HCT-15 colon = system: HCT-15 colon
HL-60(TB) leukemia = system: HL-60(TB) leukemia
SF-268 CNS = system: SF-268 CNS
MDA-MB-231 breast = system: MDA-MB-231 breast
ACHN renal = system: ACHN renal
NCI-H522 lung = system: NCI-H522 lung
786-0 renal = system: 786-0 renal
LOX IMVI melanoma = system: LOX IMVI melanoma
COLO 205 colon = system: COLO 205 colon
CCRF-CEM leukemia = system: CCRF-CEM leukemia
SK-MEL-5 melanoma = system: SK-MEL-5 melanoma
HT29 colon = system: HT29 colon
MOLT-4 leukemia = system: MOLT-4 leukemia
SK-MEL-2 melanoma = system: SK-MEL-2 melanoma
SF-539 CNS = system: SF-539 CNS
UO-31 renal = system: UO-31 renal
K-562 leukemia = system: K-562 leukemia
SNB-75 CNS = system: SNB-75 CNS
SK-OV-3 ovarian = system: SK-OV-3 ovarian
SR leukemia = system: SR leukemia
UACC-62 melanoma = system: UACC-62 melanoma
HCC-2998 colon = system: HCC-2998 colon

CCNC(=O)c1cc(Cl)ccc1NC(=O)C12CC3CC(CC(C3)C1)C2
61 µM: TGI (786-0 renal)
37.3 µM: TGI (HT29 colon)
81.9 µM: TGI (SK-MEL-2 melanoma)
60.6 µM: TGI (EKVX NSCLC)
70.9 µM: TGI (MDA-N)
88.9 µM: TGI (DU-145 prostate)
> 100 µM: TGI (KM12 colon) | TGI (HCT-116 colon) | TGI (NCI/ADR-RES ovarian) | TGI (U251 CNS) | TGI (BT-549 breast) | TGI (TK-10 renal) | TGI (HS 578T breast) | TGI (SN12C renal) | TGI (T-47D breast) | TGI (A549 NSCLC) | TGI (HOP-92 NSCLC) | TGI (MCF7 breast) | TGI (OVCAR-4 ovarian) | TGI (SNB-19 CNS) | TGI (NCI-H23 lung) | TGI (SK-MEL-28 melanoma) | TGI (M14 melanoma) | TGI (MALME-3M melanoma) | TGI (OVCAR-5 ovarian) | TGI (NCI-H226 lung) | TGI (OVCAR-8 ovarian) | TGI (A498 renal) | TGI (MDA-MB-435) | TGI (SW-620 colon) | TGI (IGROV1 ovarian) | TGI (OVCAR-3 ovarian) | TGI (CAKI-1 renal) | TGI (NCI-H460 lung) | TGI (PC-3 prostate) | TGI (UACC-257 melanoma) | TGI (SF-295 CNS) | TGI (HOP-62 NSCLC) | TGI (HCT-15 colon) | TGI (HL-60(TB) leukemia) | TGI (SF-268 CNS) | TGI (MDA-MB-231 breast) | TGI (ACHN renal) | TGI (NCI-H522 lung) | TGI (LOX IMVI melanoma) | TGI (COLO 205 colon) | TGI (CCRF-CEM leukemia) | TGI (MOLT-4 leukemia) | TGI (SF-539 CNS) | TGI (K-562 leukemia)
86.7 µM: TGI (RPMI-8226 leukemia)
43.9 µM: TGI (RXF 393 renal)
56.4 µM: TGI (UO-31 renal)
76.1 µM: TGI (SK-MEL-5 melanoma)

CC1(C)[C@@H]2C[C@H]1[C@@H](Cc1cccc(C[C@H]3c4cc(-c5ccccn5)ncc4[C@H]4C[C@@H]3C4(C)C)c1)c1cc(-c3ccccn3)ncc12
> 43.9 µM: TGI (OVCAR-8 ovarian)
> 60 µM: TGI (EKVX NSCLC)
> 29.9 µM: TGI (SN12C renal)
> 47.6 µM: TGI (HCT-116 colon) | TGI (786-0 renal)
4.33 µM: TGI (HL-60(TB) leukemia)
8.14 µM: TGI (MALME-3M melanoma)
> 61.4 µM: TGI (SW-620 colon)
> 100 µM: TGI (KM12 colon) | TGI (U251 CNS) | TGI (BT-549 breast) | TGI (SNB-75 CNS) | TGI (TK-10 renal) | TGI (SK-OV-3 ovarian) | TGI (A549 NSCLC) | TGI (SR leukemia) | TGI (MCF7 breast) | TGI (OVCAR-4 ovarian) | TGI (RXF 393 renal) | TGI (MDA-N) | TGI (SK-MEL-28 melanoma) | TGI (M14 melanoma) | TGI (OVCAR-5 ovarian) | TGI (MDA-MB-435) | TGI (UACC-62 melanoma) | TGI (OVCAR-3 ovarian) | TGI (PC-3 prostate) | TGI (UACC-257 melanoma) | TGI (SF-295 CNS) | TGI (HOP-62 NSCLC) | TGI (HCT-15 colon) | TGI (SF-268 CNS) | TGI (MDA-MB-231 breast) | TGI (LOX IMVI melanoma) | TGI (CCRF-CEM leukemia) | TGI (HT29 colon) | TGI (MOLT-4 leukemia) | TGI (SK-MEL-2 melanoma) | TGI (SF-539 CNS) | TGI (HCC-2998 colon)
8.82 µM: TGI (UO-31 renal)
> 72.6 µM: TGI (SNB-19 CNS)
inactive: GI50 (SR leukemia) > 100 µM | GI50 (MALME-3M melanoma) 1.78 µM | GI50 (HT29 colon) 12.5 µM
> 93.2 µM: TGI (A498 renal)
> 65.5 µM: TGI (COLO 205 colon)
> 53.3 µM: TGI (IGROV1 ovarian)
> 91.2 µM: TGI (NCI-H226 lung)
> 70.8 µM: TGI (NCI-H522 lung)
> 33.4 µM: TGI (NCI-H460 lung)
> 77.4 µM: TGI (NCI-H23 lung)
40.3 µM: TGI (NCI/ADR-RES ovarian)
> 24.7 µM: TGI (DU-145 prostate)
83.4 µM: TGI (HOP-92 NSCLC)
> 49.3 µM: TGI (T-47D breast)
> 66.6 µM: TGI (ACHN renal)
> 49.1 µM: TGI (K-562 leukemia)
> 38 µM: TGI (SK-MEL-5 melanoma)
> 26.4 µM: TGI (RPMI-8226 leukemia)
17 µM: TGI (CAKI-1 renal)
